Results on 6 molecules are retold here after patent publication US4803224A, “Antiviral antibiotic complex” (Bristol-Myers Company, priority 1986, dated 1989).

Entries after “also recorded” stand apart in the source; their conditions may differ. Read-outs that look alike come from different tables or passages of the source.

Common to all, as to type: cell-based
Data set [1] relates to Bacillus subtilis PCI-219. The data set is described as follows: Paper disc-agar diffusion method. To be noted: "are believed to be". The source says: (§1) The production of BU-2231 in the fermentation medium may be followed readily during the course of fermentation by the paper disc-agar diffusion method using Bacillus subtilis PCI-219 and Mycobacterium smegmatis strain M6-3 as test organisms. The BU-2231 A and BU-2231 B components of BU-2231 antibiotic complex as well as the co-produced aminoglycoside complex (also referred to as the "nebramycin factors" or "nebramycin components") are believed to be active against B. subtilis but only the BU-2231 A and B comppnents show activity against Mycobacterium smegmatis strain M6-3.
(In agar diffusion tests the substance spreads into inoculated agar from a disc or well.)

The test system of data set [2] is Mycobacterium smegmatis strain M6-3. Put plainly: Paper disc-agar diffusion method.
From the text: as §1

The test system of data set [3] is herpes simplex virus type I (HSV-1). The data set is described as follows: Dye-uptake assay, HSV-1-Vero cell system. To be noted: for Dye-uptake assay, Activity vs HSV-1 (ID50): Vero cell. The protocol: (§2) The results are shown in Table 2 together with their cytotoxicity against the host cells.
In order to examine the relationship between peptide chain length and antiviral activity, a partial acid hydrolysis of BU-2231 V was carried out by heating with 6N HCl at 100 deg. C. for one hour. The hydrolyzate was chromatographed on CM-cellulose to yield 8 peptide fragments. Number of D-α,γ-diaminobutyric acid residues in each peptide was determined by the DNP method and antiviral activity against HSV-1 assessed by the dye-uptake assay (Table 4).

Data set [4] relates to Staphylococcus aureus BX-1633-2. Put plainly: 2-fold serial broth dilution, nutrient broth. (Dilution methods test growth across graded concentrations, often in twofold steps.)
The subject of a further data set is Proteus mirabilis A9554. The data set is described as follows: 2-fold serial broth dilution, nutrient broth.
Data set [5] relates to herpes simplex virus type I (HSV-1). Put plainly: Plaque reduction assay, HSV-1-Vero cell system. To be noted: for Antiviral activity (in words): HSV-1, relative to the compounds tested; for Plaque reduction assay, Activity vs HSV-1 (ID50): Vero cell. In general terms: Plaque reduction counts the foci of infection that form in a cell layer.
The subject of data set [6] is Enterobacter cloacae A9656. Put plainly: 2-fold serial broth dilution, nutrient broth.
Data set [7] deals with Staphylococcus aureus Smith. The data set is described as follows: 2-fold serial broth dilution, nutrient broth.
In data set [8] the test system is Klebsiella pneumoniae A9977. Put plainly: 2-fold serial broth dilution, nutrient broth.
Data set [9] concerns Haemophilus influenza A2241. The data set is described as follows: 2-fold serial broth dilution, nutrient broth.
The next data set has as its system Escherichia coli Juhl. The data set is described as follows: 2-fold serial broth dilution, nutrient broth.
The test system of data set [10] is Pseudomonas aeruginosa A9930. Put plainly: 2-fold serial broth dilution, nutrient broth.
Data set [11] deals with Serratia marcescens A20019. Put plainly: 2-fold serial broth dilution, nutrient broth.
Data set [12] relates to Streptococcus faecalis A9612. The data set is described as follows: 2-fold serial broth dilution, nutrient broth.
Data set [13] has as its system Gram-positive and Gram-negative bacteria. Put plainly: In vitro antibacterial activity, 2-fold serial broth dilution, overall.
Data set [14] concerns Vero cell. The data set is described as follows: Cytotoxicity against host cells (plaque reduction assay).
From the text: as §2

Data set [15] concerns Vero cell. Put plainly: Cytotoxicity against host cells (dye-uptake assay).
From the text: as §2

Consider `Cc1c(N)nc([C@H](CC(N)=O)NC[C@H](N)C(N)=O)nc1C(=O)N[C@H](C(=O)N[C@H](C)[C@@H](O)CC(=O)N[C@H](C(=O)NC(O[C@@H]1O[C@@H](C)[C@@H](N)[C@@H](O)[C@H]1O)C(O)c1nc(-c2nc(C(=O)NCCCC(N)CC(=O)NCCCNCCCCN)cs2)cs1)[C@@H](C)O)[C@H](O[C@@H]1O[C@@H](CO)[C@@H](O)[C@H](O)[C@@H]1O[C@H]1O[C@H](CO)[C@@H](O)[C@H](OC(N)=O)[C@@H]1O)c1c[nH]cn1` (stereo partly shown) [BU-2231 A], for which, in data set [1], the “Activity against B. subtilis (in words)” value was “active”. In addition, the “Activity against Mycobacterium smegmatis strain M6-3 (in words)” value in data set [2] is recorded as “show activity”.

As for `Cc1c(N)nc([C@H](CC(N)=O)NC[C@@H](N)C(N)=O)nc1C(=O)N[C@H](C(=O)N[C@H](C)[C@@H](O)CC(=O)N[C@@H](C(=O)NC(O[C@@H]1O[C@@H](C)[C@@H](N)[C@@H](O)[C@H]1O)C(O)c1nc(-c2nc(C(=O)NCCCNCCCCN)cs2)cs1)[C@@H](C)O)C(O[C@@H]1O[C@@H](CO)[C@H](O)[C@@H](O)[C@@H]1O[C@H]1O[C@H](CO)[C@@H](O)[C@@H](OC(N)=O)[C@@H]1O)c1cnc[nH]1` (stereo partly shown) [BU-2231 B], in data set [1], the “Activity against B. subtilis (in words)” value is reported as “active”. The “Activity against Mycobacterium smegmatis strain M6-3 (in words)” value in [2] is “show activity”.

Turning to `NCC[C@@H](N)C(=O)O` [D-α,γ-DAB, D-α,γ-diaminobutyric acid], the IC50 in data set [3] (Human alphaherpesvirus 1, Vero, partial hydrolyzates of BU-2231V, read-out: Anti-HSV-1 activity ID50) was > 660 µg/mL.

Take “α-poly-L-lysine [α-Poly-L-lysine (MW: 3,500)]”: the “MIC by TDT” value in [4] was 25 µg/mL; in the data set with Proteus mirabilis A9554, 50 µg/mL; in [6], > 100 µg/mL; in data set [7] it was 12.5 µg/mL; in data set [8], 12.5 µg/mL; in [9] it was 100 µg/mL. Moreover, the “MIC by TDT” value in the data set on Escherichia coli Juhl was 12.5 µg/mL; in [10], > 100 µg/mL; in data set [11], > 100 µg/mL; in data set [12], > 100 µg/mL. In addition, the “Antiviral activity (in words)” value in data set [5] (listed as lower molecular α-poly-L-lysine) was “least active”. Also, the “Plaque reduction assay, Activity vs HSV-1 (ID50)” value (“Plaque reduction assay, Activity” below) in data set [5] stood at 42 µg/mL. Also, the “Dye-uptake assay, Activity vs HSV-1 (ID50)” value in data set [3] turned out to be 100 µg/mL. Besides, the “Antibacterial activity (in words)” value in data set [13] was “moderate inhibitory activity”; in [13] (listed as α-poly-L-lysines), “little weaker than others”.

For the molecule “α-poly-L-lysine [α-Poly-L-lysine (MW: 25,000)]”, the “Antiviral activity (in words)” value in data set [5] (listed as higher molecular α-poly-L-lysine) is “slightly less active than BU-2231 V”. Besides, in [5], the “Plaque reduction assay, Activity” value worked out at 1.8 µg/mL. The “Dye-uptake assay, Activity vs HSV-1 (ID50)” value in [3] is > 20 µg/mL.

For the molecule ε-poly-L-lysine, the “MIC by TDT” value stood at 6.3 µg/mL in [4]; 6.3 µg/mL against Proteus mirabilis A9554; 25 µg/mL in data set [6]; 6.3 µg/mL in data set [7]; 6.3 µg/mL in [8]; 12.5 µg/mL in data set [9]. The “MIC by TDT” value in the data set on Escherichia coli Juhl is 6.3 µg/mL; in data set [10] it was 12.5 µg/mL; in [11], 25 µg/mL; in [12], 50 µg/mL. Besides, the “Antiviral activity (in words)” value is listed as “slightly less active than BU-2231 V” in data set [5] and “comparably active” in data set [3] (HSV-1). Besides, in data set [5], the “Plaque reduction assay, Activity” value amounted to 2.6 µg/mL. Also, the “Dye-uptake assay, Activity vs HSV-1 (ID50)” value in [3] worked out at 2.7 µg/mL. The “Plaque reduction assay, Cytotoxicity vs Vero cell (TCID50)” value in the data set on Vero cell [14] was 70 µg/mL. For the same molecule, the “Dye-uptake assay, Cytotoxicity vs Vero cell (TCID50)” value in the data set on Vero cell [15] is > 100 µg/mL. Also, the “Antibacterial activity (in words)” value in [13] is listed as “moderate inhibitory activity; also recorded: comparable”.
